Molecules are shown by their SMILES. “And” between values parts separate entries of the source, which are not always exact repeats. Equal values may be shown once.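 48-hour exposure; five concentrations; linearly interpolated endpoints. The concentration for 50% growth inhibition is given as GI50. TGI: concentration producing complete growth inhibition.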

Test systems include UACC-62 melanoma; UO-31 renal; RXF 393 renal; HCT-15 colon; OVCAR-4 ovarian; NCI-H522 lung; KM12 colon; TK-10 renal; OVCAR-5 ovarian; LOX IMVI melanoma.
Test in all cases: NCI tumour cell line growth inhibition, 48 h

For the compound `COc1cc2c3c(n(C)c(=O)c2cc1OC)-c1cc2c(cc1/C3=C\[C@@H](N)CCCCN)OCO2`, the GI50 was 0.467 µM in the assay on UACC-62 melanoma; 8 µM in the assay with UO-31 renal; 12.7 µM in the assay with RXF 393 renal; 60.3 µM in the assay on HCT-15 colon; 1.26 µM with OVCAR-4 ovarian; 1.37 µM in the assay with NCI-H522 lung. In addition, the GI50 in the assay with KM12 colon is 1.58 µM; with TK-10 renal, 7.12 µM; in the assay on OVCAR-5 ovarian, 5.14 µM; with LOX IMVI melanoma, 0.298 µM. In addition, the TGI is 7.38 µM with UACC-62 melanoma; above 100 µM with UO-31 renal; above 50.9 µM in the assay on RXF 393 renal; above 100 µM in the assay on HCT-15 colon; 99 µM with OVCAR-4 ovarian; above 23.2 µM in the assay on NCI-H522 lung. The TGI is above 100 µM in the assay on KM12 colon, above 75 µM with TK-10 renal, above 100 µM in the assay with OVCAR-5 ovarian and 3.9 µM with LOX IMVI melanoma.
For the compound `CC(C)[C@@H](CS(=O)(=O)C(C)C)N1C(=O)[C@@](C)(CC(=O)O)C[C@H](c2cccc(Cl)c2)[C@H]1c1ccc(Cl)cc1`, the GI50 was 0.333 µM with UACC-62 melanoma; 0.303 µM with UO-31 renal; 19.5 µM in the assay on RXF 393 renal; 15.3 µM with HCT-15 colon; 7.45 µM in the assay on OVCAR-4 ovarian; 17.8 µM with NCI-H522 lung. In addition, the GI50 with KM12 colon is 16 µM; with TK-10 renal, 28.2 µM; with OVCAR-5 ovarian, 25.7 µM; in the assay with LOX IMVI melanoma, 0.485 µM. Moreover, the TGI is 11.3 µM in the assay with UACC-62 melanoma; 7.14 µM in the assay on UO-31 renal; 67 µM in the assay on RXF 393 renal; above 69.3 µM in the assay with HCT-15 colon; above 75.9 µM with OVCAR-4 ovarian; 51.5 µM in the assay on NCI-H522 lung. The TGI with KM12 colon is above 51.6 µM; with TK-10 renal, 97 µM; with OVCAR-5 ovarian, above 100 µM; in the assay on LOX IMVI melanoma it was 21 µM.
Take `CC(C)CC(=O)CC(O)C(Cl)(Cl)Cl` (configuration not stated): the TGI with UACC-62 melanoma, with UO-31 renal, in the assay with RXF 393 renal, in the assay with HCT-15 colon, with OVCAR-4 ovarian and with NCI-H522 lung was above 100 µM in each case. Besides, the TGI in the assay on KM12 colon, in the assay on TK-10 renal, in the assay on OVCAR-5 ovarian and with LOX IMVI melanoma was above 100 µM throughout.
Consider `Clc1ccc(Nc2nc3ccccc3c3occc23)cc1`, for which the GI50 is 8.1 µM with UACC-62 melanoma; 7.91 µM in the assay on UO-31 renal; 8.4 µM with RXF 393 renal; 11.2 µM in the assay on HCT-15 colon; 8.7 µM in the assay with OVCAR-4 ovarian; 9.83 µM in the assay on NCI-H522 lung. Moreover, the GI50 is 6.46 µM in the assay with KM12 colon, 4.99 µM in the assay with TK-10 renal, 9.4 µM in the assay on OVCAR-5 ovarian and 5.49 µM in the assay with LOX IMVI melanoma. Further, the TGI was found to be 18.3 µM in the assay on UACC-62 melanoma; 22.6 µM with UO-31 renal; 16.9 µM in the assay on RXF 393 renal; 34.4 µM with HCT-15 colon; 19.8 µM in the assay on OVCAR-4 ovarian; 20.3 µM in the assay with NCI-H522 lung. In addition, the TGI in the assay on KM12 colon was determined as 13.8 µM; in the assay with TK-10 renal, 11 µM; in the assay on OVCAR-5 ovarian it was 18.4 µM; in the assay on LOX IMVI melanoma, 14.3 µM.
Take `c1ccc2c(c1)ccc1c3ccccc3ccc21`: the GI50 in the assay with UACC-62 melanoma, in the assay on UO-31 renal, with RXF 393 renal, in the assay with HCT-15 colon, in the assay with OVCAR-4 ovarian and in the assay on NCI-H522 lung was above 50 µM throughout. The GI50 in the assay with KM12 colon, in the assay on TK-10 renal, in the assay on OVCAR-5 ovarian and in the assay on LOX IMVI melanoma was above 50 µM each time. Moreover, the TGI in the assay with UACC-62 melanoma, in the assay on UO-31 renal, in the assay on RXF 393 renal, in the assay on HCT-15 colon, with OVCAR-4 ovarian and in the assay with NCI-H522 lung was above 50 µM throughout. Moreover, the TGI in the assay with KM12 colon, in the assay on TK-10 renal, in the assay with OVCAR-5 ovarian and in the assay with LOX IMVI melanoma was above 50 µM each time.
`CCc1nc(N)nc(N)c1-c1ccc(Cl)c(N=NN(C)C)c1`: the TGI with UACC-62 melanoma is 76.8 µM; in the assay on UO-31 renal it was above 70.4 µM; with RXF 393 renal, above 100 µM; in the assay with HCT-15 colon, above 100 µM; with OVCAR-4 ovarian it was above 46.4 µM; in the assay with NCI-H522 lung it was 99.6 µM. The TGI is above 97.3 µM with KM12 colon, above 100 µM in the assay with TK-10 renal, above 100 µM with OVCAR-5 ovarian and above 100 µM in the assay on LOX IMVI melanoma.
As to `Oc1ccc(SCc2ccc(NCc3ccccc3)cc2)cc1`, the TGI is 76.4 µM in the assay on UACC-62 melanoma; 56.5 µM with UO-31 renal; 78.8 µM with RXF 393 renal; above 100 µM with HCT-15 colon; above 100 µM in the assay on OVCAR-4 ovarian; 98.2 µM in the assay on NCI-H522 lung. In addition, the TGI was above 100 µM with KM12 colon, above 100 µM in the assay on TK-10 renal, 69.3 µM in the assay on OVCAR-5 ovarian and 73.9 µM in the assay on LOX IMVI melanoma.
For `COc1ccc(Cn2cc(Cn3c(=O)c(-c4nc5ccccc5[nH]4)cc4ccccc43)nn2)c(OC)c1OC`, the GI50 was 0.672 µM in the assay on UACC-62 melanoma; 0.576 µM and 0.749 µM in the assay with UO-31 renal; 0.129 µM in the assay on RXF 393 renal; 0.378 µM with HCT-15 colon; 1.31 µM in the assay on OVCAR-4 ovarian; 0.148 µM and 0.176 µM with NCI-H522 lung. The GI50 in the assay on KM12 colon is 0.226 µM and 0.186 µM; in the assay with TK-10 renal, 0.572 µM and 1.02 µM; in the assay with OVCAR-5 ovarian, 0.201 µM and 0.329 µM; in the assay with LOX IMVI melanoma, 0.254 µM and 0.112 µM. Also, the TGI with UACC-62 melanoma was 5.42 µM; with UO-31 renal, 1.78 µM and 4.63 µM; in the assay on RXF 393 renal it was 0.49 µM; with HCT-15 colon, above 100 µM; with OVCAR-4 ovarian, above 100 µM; in the assay on KM12 colon, 1.39 µM and 1.48 µM. In the assay with OVCAR-5 ovarian, the TGI was 1.23 µM and 1.53 µM.
Take `O=C1C(=O)c2c(nc3ncccn23)-c2ccccc21`: the GI50 in the assay on UACC-62 melanoma is 0.177 µM; in the assay on UO-31 renal, 0.187 µM; with RXF 393 renal, 0.497 µM; in the assay on HCT-15 colon, 0.166 µM; in the assay on OVCAR-4 ovarian, 0.161 µM; in the assay on NCI-H522 lung, 0.232 µM. Further, the GI50 with KM12 colon is 0.678 µM; in the assay with TK-10 renal, 1.85 µM; with OVCAR-5 ovarian, 0.397 µM; in the assay with LOX IMVI melanoma, 0.15 µM. Further, the TGI in the assay with UACC-62 melanoma stood at 0.326 µM; in the assay with UO-31 renal, 0.405 µM; with RXF 393 renal, 0.967 µM; in the assay on HCT-15 colon, 0.358 µM; in the assay on OVCAR-4 ovarian, 0.297 µM; in the assay on NCI-H522 lung, 0.753 µM. The TGI in the assay on KM12 colon was found to be 1.9 µM; in the assay on TK-10 renal, 3.35 µM; in the assay on OVCAR-5 ovarian, 0.852 µM; in the assay on LOX IMVI melanoma, 0.339 µM.

The values are drawn from PubChem BioAssay (NCI).
